The record followed here is ChEMBL document CHEMBL1158536, “How well can the Caco-2/Madin-Darby canine kidney models predict effective human jejunal permeability?” (J Med Chem, 2010).

As usually defined, the Papp is a coefficient for how fast a substance crosses the barrier. Low values mean poor permeation, high ones ready permeation. Broadly, the bioavailability is dose-corrected exposure relative to a reference, in per cent.

One data set in a line: clinical. As to conditions: human.
Data set [1] can be described thus: Absolute bioavailability in human. It is filed as ADME, organism-based. As to conditions: in vivo.
The conditions of data set [2]: caco-2.

The structures appear in SMILES notation.

In the case of `CC1(C)S[C@@H]2[C@H](NC(=O)[C@H](N)c3ccc(O)cc3)C(=O)N2[C@H]1C(=O)O` [AMOXICILLIN], the apparent permeability coefficient (Papp) in the data set “clinical” is 30 ×10⁻⁶ cm/s. This compound gave a bioavailability in data set [1] of 45%. The compound also returned a Daq in data set [2] of 6.8 ×10⁻⁶ cm2/s.
Regarding `COc1cc([C@@H]2c3cc4c(cc3[C@@H](O[C@@H]3O[C@@H]5CO[C@@H](C)O[C@H]5[C@H](O)[C@H]3O)[C@H]3COC(=O)[C@H]23)OCO4)cc(OC)c1O` [ETOPOSIDE], in data set [1], the bioavailability turned out to be 52%.
The same measure, in the same setting: under `CC1COc2c(N3CCN(C)CC3)c(F)cc3c(=O)c(C(=O)O)cn1c23` (stereo not drawn) [OFLOXACIN] stands 90%; under `Cn1c(=O)c2c(ncn2C)n(C)c1=O` [CAFFEINE], 98%.
`CC(C)NCC(O)COc1ccc(CC(N)=O)cc1` (stereo not drawn) [ATENOLOL] had a Daq in data set [2] of 7.9 ×10⁻⁶ cm2/s.
In the case of `CNCCCN1c2ccccc2CCc2ccccc21` [DESIPRAMINE], the apparent permeability (Papp) in “clinical” was determined as 440 ×10⁻⁶ cm/s. In data set [1], this compound yielded a bioavailability of 70%. This compound also yielded a Daq in data set [2] of 7.9 ×10⁻⁶ cm2/s.
Compound `COCCc1ccc(OCC(O)CNC(C)C)cc1` (stereo not drawn) [METOPROLOL] displayed a Papp in “clinical” of 90 ×10⁻⁶ cm/s. Besides, in data set [2], the Daq is recorded as 7.9 ×10⁻⁶ cm2/s.
As for `COC1=CC(=O)C[C@@H](C)[C@]12Oc1c(Cl)c(OC)cc(OC)c1C2=O` [GRISEOFULVIN], the Papp in “clinical” worked out at 114 ×10⁻⁶ cm/s. This compound also yielded a bioavailability in data set [1] of 95%. The Daq in data set [2] is given as 6.9 ×10⁻⁶ cm2/s.
The matching figures for `NC(=O)N1c2ccccc2C=Cc2ccccc21` [CARBAMAZEPINE]: 430 ×10⁻⁶ cm/s, 90% and 8.3 ×10⁻⁶ cm2/s.
`CCCc1cc(=O)[nH]c(=S)[nH]1` [PROPYLTHIOURACIL] showed a bioavailability in data set [1] of 85%.
In data set [2], `CC1=C(C(=O)O)N2C(=O)[C@@H](NC(=O)[C@H](N)c3ccccc3)[C@H]2SC1` [CEPHALEXIN ANHYDROUS] came in with a Daq of 7 ×10⁻⁶ cm2/s.
`O=C(O)Cc1ccccc1Nc1c(Cl)cccc1Cl` [DICLOFENAC] displayed a bioavailability in data set [1] of 54%.
Take `CCC[C@@H]1C[C@@H](C(=O)N[C@@H]([C@H]2O[C@H](SC)[C@H](O)[C@@H](O)[C@H]2O)[C@@H](C)O)N(C)C1` [LINCOMYCIN]: in data set [1], the bioavailability turned out to be 25%.
The same measure, in the same setting: next, `COc1ccc2c(c1)c(CC(=O)O)c(C)n2C(=O)c1ccc(Cl)cc1` [INDOMETHACIN]: 99%; `CC(C)NCC(O)c1ccc(NS(C)(=O)=O)cc1` (stereo not drawn) [SOTALOL]: 95%.
`CC(C)NCC(O)COc1cccc2ccccc12` (stereo not drawn) [PROPRANOLOL] gave a bioavailability in data set [1] of 100%. The compound further came in with a Daq in data set [2] of 8 ×10⁻⁶ cm2/s.
With `CC(C)(C)NCC(O)COc1cccc2c1CC(O)C(O)C2` (stereo not drawn) [NADOLOL], the bioavailability in data set [1] was 30%.
Still for that read-out and setting: under `CC(C)Cc1ccc(C(C)C(=O)O)cc1` (stereo not drawn) [IBUPROFEN] stands 85%; under `O=C1OC2(c3ccc(O)cc3Oc3cc(O)ccc32)c2ccccc21` [FLUORESCEIN], 99%.
`O` [WATER] displayed an apparent permeability coefficient (Papp) in the data set “clinical” of 140 ×10⁻⁶ cm/s. In data set [2], this compound gave a Daq of 26.7 ×10⁻⁶ cm2/s.
`COc1ccc2cc([C@H](C)C(=O)O)ccc2c1` [NAPROXEN] had a Daq in data set [2] of 8.4 ×10⁻⁶ cm2/s.
For the compound `Cc1cc(NC(=O)C2=C(O)c3ccccc3S(=O)(=O)N2C)no1` [ISOXICAM], the bioavailability in data set [1] came out at 100%.
In turn, `COc1ccc(CCN(C)CCCC(C#N)(c2ccc(OC)c(OC)c2)C(C)C)cc1OC` (stereo not drawn) showed a bioavailability in data set [1] of 84%.
The same measure, in the same setting: under `C[C@H]1O[C@@H](O[C@H]2[C@@H](O)C[C@H](O[C@H]3[C@@H](O)C[C@H](O[C@H]4CC[C@@]5(C)[C@H](CC[C@@H]6[C@@H]5C[C@@H](O)[C@]5(C)[C@@H](C7=CC(=O)OC7)CC[C@]65O)C4)O[C@@H]3C)O[C@@H]2C)C[C@H](O)[C@@H]1O` [DIGOXIN] stands 70%.
In turn, `NS(=O)(=O)c1cc(C(=O)O)c(NCc2ccco2)cc1Cl` [FUROSEMIDE] displayed a Daq in data set [2] of 7.1 ×10⁻⁶ cm2/s.
For `O=C(N[C@H](CO)[C@H](O)c1ccc([N+](=O)[O-])cc1)C(Cl)Cl` [CHLORAMPHENICOL], the bioavailability in data set [1] was found to be 82%.
Consider `COc1cc(Cc2cnc(N)nc2N)cc(OC)c1OC` [TRIMETHOPRIM], for which the bioavailability in data set [1] turned out to be 98%.
